# In US8420823B2, “Long-chain fatty acyl elongase inhibitor comprising arylsulfonyl derivative as active ingredient” (MSD K.K., priority 2008, dated 2013):
# Target: T1, human LCE (Homo sapiens, UniProt Q9H5J4)
# T1 sequence (Q9H5J4 1-265): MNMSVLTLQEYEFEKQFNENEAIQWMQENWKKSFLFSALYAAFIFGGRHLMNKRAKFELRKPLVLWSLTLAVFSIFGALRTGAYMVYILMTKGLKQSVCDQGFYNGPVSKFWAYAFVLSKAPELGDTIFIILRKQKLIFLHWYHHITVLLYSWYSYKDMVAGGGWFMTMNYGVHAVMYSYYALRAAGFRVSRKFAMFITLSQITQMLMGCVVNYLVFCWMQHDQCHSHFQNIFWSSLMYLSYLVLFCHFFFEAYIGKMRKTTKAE
# Assay: LCE enzyme activity-inhibitory test
# Type: biochemical
# Settings: [14C]-malonyl CoA / palmitoyl CoA substrate, 37° C., 90 minutes
# Summary of the method: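 Human LCE (100 μg/mL in enzyme solution) was incubated 90 min at 37 °C in 100 mM potassium phosphate pH 6.5 with palmitoyl CoA, malonyl CoA, [14C]-malonyl CoA, rotenone and fatty acid-free BSA. Acid-stopped, hydrolyzed products were captured on GF/C filters and counted by scintillation. Inhibition was calculated against DMSO control.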
row,IC50 [nM],SMILES
1,160,"COc1cccnc1NC(=O)c1cccc(S(=O)(=O)N2CCCC2)c1 [Example 104, N-(3-methoxypyridin-2-yl)-3-(pyrrolidin-1-ylsulfonyl)benzamide]"
2,84,"O=C(Nc1cc(C2CC2)n[nH]1)c1cccc(S(=O)(=O)N2CCCCC2)c1 [Example 105, N-(3-cyclopropyl-1H-pyrazol-5-yl)-3-(piperidin-1-ylsulfonyl)benzamide]"
3,1800,"COc1cc(Br)cnc1NC(=O)c1cccc(S(=O)(=O)N2CCCCC2)c1 [Example 106, N-(5-bromo-3-methoxypyridin-2-yl)-3-(piperidin-1-ylsulfonyl)benzamide]"
4,520,"C=Cc1cnc(NC(=O)c2cccc(S(=O)(=O)N3CCCCC3)c2)c(OC)c1 [Example 107, N-(3-methoxy-5-vinylpyridin-2-yl)-3-(piperidin-1-ylsulfonyl)benzamide]"
5,3200,"COc1cc(-c2ccccc2)cnc1NC(=O)c1cccc(S(=O)(=O)N2CCCC2)c1 [Example 109, N-(3-methoxy-5-phenylpyridin-2-yl)-3-(pyrrolidin-1-ylsulfonyl)benzamide]"
6,210,"COc1cc(Oc2ccccc2)cnc1NC(=O)c1cccc(S(=O)(=O)N2CCCC2)c1 [Example 110, N-(3-methoxy-5-phenoxypyridin-2-yl)-3-(pyrrolidin-1-ylsulfonyl)benzamide]"
7,400,"CCOc1cccnc1NC(=O)c1cccc(S(=O)(=O)N2CCCC2)c1 [Example 113, N-(3-ethoxypyridin-2-yl)-3-(pyrrolidin-1-ylsulfonyl)benzamide]"
8,280,"CCOc1cc(NC(=O)c2cccc(S(=O)(=O)c3ccccn3)c2)[nH]n1 [Example 117, N-(3-ethoxy-1H-pyrazol-5-yl)-3-(pyridin-2-ylsulfonyl)benzamide]"
9,390,"COc1cccnc1NC(=O)c1cccc(S(=O)(=O)c2ccccn2)c1 [Example 120, N-(3-methoxypyridin-2-yl)-3-(pyridin-2-ylsulfonyl)benzamide]"
10,2700,"COCC(C)Oc1ccc(NC(=O)c2cccc(S(=O)(=O)c3ccccn3)c2)c(F)c1 (stereo not shown) [Example 123, N-[2-fluoro-4-(2-methoxy-1-methylethoxy)phenyl]-3-(pyridin-2-ylsulfonyl)benzamide]"
11,1500,"CC(C)Oc1ccc(NC(=O)c2cccc(S(=O)(=O)c3cccnc3)c2)cc1 [Example 130, N-(4-isopropoxyphenyl)-3-(pyridin-3-ylsulfonyl)benzamide]"
12,420,"COc1ccccc1NC(=O)c1cccc(S(=O)(=O)c2ccccc2)c1 [Example 134, N-(2-methoxyphenyl)-3-(phenylsulfonyl)benzamide]"
13,160,"CC(C)c1ccc(NC(=O)c2cccc(S(=O)(=O)c3ccccc3)c2)cc1 [Example 136, N-(4-isopropylphenyl)-3-(phenylsulfonyl)benzamide]"
14,130,"CC(C)Oc1ccc(NC(=O)c2cccc(S(=O)(=O)c3ncccn3)c2)cc1 [Example 139, N-(4-isopropoxyphenyl)-3-(pyrimidin-2-ylsulfonyl)benzamide]"
15,380,"O=C(Nc1cc(C2CC2)n[nH]1)c1cccc(S(=O)(=O)c2ncccn2)c1 [Example 140, N-(3-cyclopropyl-1H-pyrazol-5-yl)-3-(pyrimidin-2-ylsulfonyl)benzamide]"
16,5100,"CC(C)Oc1ccc(NC(=O)c2cccc(S(=O)(=O)c3nc[nH]n3)c2)cc1 [Example 142, N-(4-isopropoxyphenyl)-3-(1H-1,2,4-triazol-3-ylsulfonyl)benzamide]"

# The next lines start with the compound.
row,SMILES,IC50 [nM]
1,"CC(C)Oc1ccc(NC(=O)c2cccc(S(=O)(=O)N3CCCCC3)c2)cn1 [Example 100, N-(6-isopropoxypyridin-3-yl)-3-(piperidin-1-ylsulfonyl)benzamide]",39
2,"O=C(Nc1ccc(Oc2ccccc2)nc1)c1cccc(S(=O)(=O)N2CCCCC2)c1 [Example 101, N-(6-phenoxypyridin-3-yl)-3-(piperidin-1-ylsulfonyl)benzamide]",910
3,"COc1ccc(NC(=O)c2cccc(S(=O)(=O)N3CCCCC3)c2)cn1 [Example 102, N-(6-methoxypyridin-3-yl)-3-(piperidin-1-ylsulfonyl)benzamide]",3400
4,"CCc1cnc(NC(=O)c2cccc(S(=O)(=O)N3CCCCC3)c2)c(OC)c1 [Example 108, N-(5-ethyl-3-methoxypyridin-2-yl)-3-(piperidin-1-ylsulfonyl)benzamide]",100
5,"COc1cc(Sc2ccccc2)cnc1NC(=O)c1cccc(S(=O)(=O)N2CCCC2)c1 [Example 111, N-[3-methoxy-5-(phenylthio)pyridin-2-yl]-3-(pyrrolidin-1-ylsulfonyl)benzamide]",250
6,"COc1cc(S(=O)(=O)c2ccccc2)cnc1NC(=O)c1cccc(S(=O)(=O)N2CCCC2)c1 [Example 112, N-[3-methoxy-5-(phenylsulfonyl)pyridin-2-yl]-3-(pyrrolidin-1-ylsulfonyl)benzamide]",9500
7,"N#Cc1nc[nH]c1NC(=O)c1cccc(S(=O)(=O)N2CCCCC2)c1 [Example 114, N-(4-cyano-1H-imidazol-5-yl)-3-(piperidin-1-ylsulfonyl)benzamide]",2800
8,"O=C(Nc1cc(C2CC2)n[nH]1)c1cccc(S(=O)(=O)N2CCCC2)c1 [Example 115, N-(3-cyclopropyl-1H-pyrazol-5-yl)-3-(pyrrolidin-1-ylsulfonyl)benzamide]",310
9,"CC(C)Oc1cc(NC(=O)c2cccc(S(=O)(=O)c3ccccn3)c2)[nH]n1 [Example 116, N-(3-isopropoxy-1H-pyrazol-5-yl)-3-(pyridin-2-ylsulfonyl)benzamide]",12
10,"CCCOc1cc(NC(=O)c2cccc(S(=O)(=O)c3ccccn3)c2)[nH]n1 [Example 118, N-(3-propoxy-1H-pyrazol-5-yl)-3-(pyridin-2-ylsulfonyl)benzamide]",24
11,"CCCCOc1cc(NC(=O)c2cccc(S(=O)(=O)c3ccccn3)c2)[nH]n1 [Example 119, N-(3-butoxy-1H-pyrazol-5-yl)-3-(pyridin-2-ylsulfonyl)benzamide]",6
12,"CC(C)c1ccc(NC(=O)c2cccc(S(=O)(=O)c3ccccn3)c2)cc1 [Example 121, N-(4-isopropylphenyl)-3-(pyridin-2-ylsulfonyl)benzamide]",180
13,"CC(C)Oc1ccc(NC(=O)c2cccc(S(=O)(=O)c3ccccn3)c2)nc1 [Example 122, N-(5-isopropoxypyridin-2-yl)-3-(pyridin-2-ylsulfonyl)benzamide]",260
14,"O=C(Nc1ccc(OC(CF)CF)cc1F)c1cccc(S(=O)(=O)c2ccccn2)c1 [Example 124, N-{2-fluoro-4-[2-fluoro-1-(fluoromethyl)ethoxy]phenyl}-3-(pyridin-2-ylsulfonyl)benzamide]",350
15,"O=C(Nc1ccc(OC2CCCC2)cc1F)c1cccc(S(=O)(=O)c2ccccn2)c1 [Example 125, N-[4-(cyclopentyloxy)-2-fluorophenyl]-3-(pyridin-2-ylsulfonyl)benzamide]",240
16,"CC(C)Oc1ccc(NC(=O)c2cccc(S(=O)(=O)c3ccccn3)c2)c(F)c1 [Example 126, N-(2-fluoro-4-isopropoxyphenyl)-3-(pyridin-2-ylsulfonyl)benzamide]",150
17,"CC(C)COc1ccc(NC(=O)c2cccc(S(=O)(=O)c3ccccn3)c2)c(F)c1 [Example 127, N-(2-fluoro-4-isobutoxyphenyl)-3-(pyridin-2-ylsulfonyl)benzamide]",1000
18,"CCC(C)Oc1ccc(NC(=O)c2cccc(S(=O)(=O)c3ccccn3)c2)c(F)c1 (stereo not shown) [Example 128, N-(4-sec-butoxy-2-fluorophenyl)-3-(pyridin-2-ylsulfonyl)benzamide]",190
19,"CC(C)Oc1ccc(NC(=O)c2cccc(S(=O)(=O)c3ccccn3)c2)nc1Br [Example 129, N-(6-bromo-5-isopropoxypyridin-2-yl)-3-(pyridin-2-ylsulfonyl)benzamide]",4500
20,"Cc1ccnc(S(=O)(=O)c2cccc(C(=O)Nc3ccc(OC(C)C)cc3)c2)c1 [Example 131, N-(4-isopropoxyphenyl)-3-[(4-methylpyridin-2-yl)sulfonyl]benzamide]",1600
21,"Cc1cccc(S(=O)(=O)c2cccc(C(=O)Nc3ccc(OC(C)C)cc3)c2)n1 [Example 132, N-(4-isopropoxyphenyl)-3-[(6-methylpyridin-2-yl)sulfonyl]benzamide]",680
22,"COc1ccc(NC(=O)c2cccc(S(=O)(=O)c3ccccc3)c2)cc1 [Example 133, N-(4-methoxyphenyl)-3-(phenylsulfonyl)benzamide]",3700
23,"COc1cccnc1NC(=O)c1cccc(S(=O)(=O)c2ccccc2)c1 [Example 135, N-(3-methoxypyridin-2-yl)-3-(phenylsulfonyl)benzamide]",510
24,"CC(C)c1ccc(NC(=O)c2cccc(S(=O)(=O)c3ccc(F)cc3)c2)cc1 [Example 137, 3-[(4-fluorophenyl)sulfonyl]-N-(4-isopropylphenyl)benzamide]",690
25,"CC(C)Oc1ccc(NC(=O)c2cccc(S(=O)(=O)c3ncccn3)c2)nc1 [Example 138, N-(5-isopropoxypyridin-2-yl)-3-(pyrimidin-2-ylsulfonyl)benzamide]",240
26,"CC(C)Oc1ccc(NC(=O)c2cccc(S(=O)(=O)c3cnccn3)c2)cc1 [Example 141, N-(4-isopropoxyphenyl)-3-(pyrazin-2-ylsulfonyl)benzamide]",1500
27,"CC(C)Oc1ccc(NC(=O)c2cccc(S(=O)(=O)c3cn[nH]c3)c2)cc1 [Example 143, N-(4-isopropoxyphenyl)-3-(1H-pyrazol-4-ylsulfonyl)benzamide]",4500
